Consider three compounds from paper PMC3280214, “Structure Based Discovery of Small Molecules to Regulate the Activity of Human Insulin Degrading Enzyme” (PLoS ONE, 2012).

Test [1] deals with T1, IDE (Homo sapiens, UniProt P14735).
T1 construct: made in house; host or cells: E. coli BL21
T1 sequence (P14735 1-1019): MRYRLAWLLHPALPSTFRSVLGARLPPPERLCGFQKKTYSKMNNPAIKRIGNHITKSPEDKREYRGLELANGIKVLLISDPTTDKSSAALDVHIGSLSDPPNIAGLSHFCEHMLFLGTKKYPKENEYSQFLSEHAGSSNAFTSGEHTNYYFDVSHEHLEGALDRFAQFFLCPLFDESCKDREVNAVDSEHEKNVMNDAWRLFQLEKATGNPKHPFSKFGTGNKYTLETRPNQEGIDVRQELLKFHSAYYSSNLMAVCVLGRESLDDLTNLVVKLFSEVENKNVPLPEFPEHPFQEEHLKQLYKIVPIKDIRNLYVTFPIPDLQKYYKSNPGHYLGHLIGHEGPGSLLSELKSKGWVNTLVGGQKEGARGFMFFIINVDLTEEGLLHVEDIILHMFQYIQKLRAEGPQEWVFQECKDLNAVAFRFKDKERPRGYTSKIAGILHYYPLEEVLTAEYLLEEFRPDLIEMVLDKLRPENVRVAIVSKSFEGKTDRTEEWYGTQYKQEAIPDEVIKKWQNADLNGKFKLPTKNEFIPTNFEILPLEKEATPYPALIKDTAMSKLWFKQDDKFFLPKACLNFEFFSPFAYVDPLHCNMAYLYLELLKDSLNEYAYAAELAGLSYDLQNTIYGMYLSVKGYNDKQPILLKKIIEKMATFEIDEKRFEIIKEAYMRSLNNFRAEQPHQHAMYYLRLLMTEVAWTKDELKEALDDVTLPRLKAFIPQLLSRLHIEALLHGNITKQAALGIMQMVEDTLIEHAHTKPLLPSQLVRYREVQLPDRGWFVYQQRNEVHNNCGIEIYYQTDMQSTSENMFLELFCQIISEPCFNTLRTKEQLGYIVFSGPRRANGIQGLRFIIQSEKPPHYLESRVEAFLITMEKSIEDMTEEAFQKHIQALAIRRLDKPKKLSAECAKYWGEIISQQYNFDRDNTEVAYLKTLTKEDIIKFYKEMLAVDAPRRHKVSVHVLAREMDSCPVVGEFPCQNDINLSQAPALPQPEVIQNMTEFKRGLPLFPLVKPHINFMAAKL
The test is described as follows: FAβB (amyloid-β) degradation assay. In kind it is biochemical. The settings on record: 20 µM compound. The procedure: (§1) The 10 compounds given in Table 1 were subjected to further characterization and their effect was measured on the proteolytic activity of IDE using different substrates. Initially, activity assays were carried out at fixed 20 µM concentrations for all molecules to identify the effect of those compounds on IDE activity. IDE activity was quantified by monitoring the change in fluorescence for the proteolysis of fluorogenic-substrate V, FITC- insulin-bound antibody, and FAβB by recombinant human IDE purified from E.coli BL21 [6], [18], [19]. […] Also, D6 increased the amyloid-β degradation by 20% (Fig. S1C). Further, D10 enhanced IDE-mediated FITC-insulin-mAb and substrate V degradation by 290% and 65%, respectively (Fig. S1A, B). Next, an EC50 value of each molecule that enhanced IDE activity was determined with a dose response assay, where specific activity of IDE was measured with different concentrations of the lead compounds and then the plot was fit to Sigmoidal Hill-4 parameter equation. […] EC50 value for D3 on insulin degradation was approximately measured as 20 µM (Fig. S2C), whereas EC50 value for D6 on amyloid-β degradation was 2 µM (Fig. S2D). […] Among all these four compounds, D10 seems to be the potent activator of IDE, when proteolysis of insulin is considered.
This assay was performed as follows: 10 µl of 50 nM of FAβB was dissolved in a buffer which consisted of 50 mM HEPES, 100 mM NaCl, % 0,05 (v/v) bovine serum albumin, at a pH of 7.4. The reaction was initiated in a total volume of 100 µl with 20 µM drugs by adding 20 µl of 0.02 mg/ml of IDE for 2.5 h at 37°C. The reaction was stopped by adding 2 µl of 100 mM of protease inhibitor (1, 10-phenanthroline). Uncleaved FAβB was precipitated with Neutravidin- coated agarose beads by gentle rocking for 30 min. and centrifugation for 10 min at 14000 g. The supernatant was transferred to the black 96 well plates and increase in fluorescence (488 excitation, 525 emission) was measured with a multi-label plate reader.
(§2) The effect of the lead compounds on the initial rate of proteolysis of IDE was determined by measurement in fluorescence with time both in the presence and absence of the lead compounds. The kinetic data for IDE-mediated insulin, substrate V and amyloid-β degradation were plotted and fitted using SigmaPlot software (Sigmoidal, Hill, 4 parameter). For the initial rate calculations, kinetic data were fitted using SigmaPlot software (Hyperbola; Single Rectangular I, 3 Parameter).

Test [2] addresses T1, IDE. The test is described as follows: Degradation of FITC-insulin-mAb by IDE. It is filed as biochemical. The following applies: for increase of IDE-mediated insulin (FITC-insulin-mAb) degradation: 20 µM compound; for effect of ATP on IDE activity for insulin degradation in presence of compound: 0.1 mM ATP; for EC50: dose response, Sigmoidal Hill 4 parameter fit; for increase of initial rate of proteolysis of FITC-insulin bound with antibody: wild type IDE, presence vs absence of compound. The procedure:
as §1
In order to measure degradation of insulin by IDE, FITC-insulin is bound to the monoclonal mouse anti-human-insulin, so that the rotation of free FITC and possible changes in fluorescence polarization could be prevented. We performed enzymatic assays, using only FITC-insulin bound antibody as a background fluorescence and checked the effects of compounds on the cleavage of FITC-insulin-mAb. FITC-insulin is bound to mouse anti human insulin antibody in PBS at 37°C for 1 hour, which is higher than the optimum time required to obtain maximum binding of insulin-FITC conjugate and mAb. It is observed that 400 nM mAb completely binds to 50 nM FITC-insulin (Fig. S7). Since molecular weights of FITC-insulin and mAb are about 5.8 kDa and 60 kDa respectively, we observed very slight shift in the gel as expected. In figure S7, it is observed in lane 4 that 50 nM (100 ng) insulin is completely bound to 400 nM mAb in lane 4 (Fig. S7). […] The binding between insulin and mAb is shown by performing (%5 and %15) native polyacrylamide gel electrophoresis.
The utility of these novel compounds were tested on degradation of insulin by IDE. First insulin was labeled with FITC as described previously. Briefly, 500 mg insulin dissolved in 1.5 ml of 0.1 M Na-carbonate, at pH 7, and 0.2 mM EDTA. Then, 4.5 mg FITC was dissolved in 200 µl acetone and was added dropwise to previous solution at room temperature for 20 h ([FITC]∶[insulin], 3∶1). Finally, unreacted FITC was removed by dialysis and the FITC-insulin was stored at −20°C. The proteolysis of insulin by IDE was monitored by measuring the changes in fluorescence, where the reaction was carried out with 100 nM of FITC- insulin-mAb and IDE (80 ng) in 100 µl KH2PO4 buffer at a pH of 7.3. Reaction was carried out at 37°C for different time intervals (0–4 hours). The increase in fluorescence was monitored by using Fluoroskan Ascent FL microplate reader (Thermo).
as §2

A word on the EC50: it is the concentration at which the effect is half-maximal.

Several values for one entry are separate records, joined by “and”; a condition that tells them apart may be missing. Identical values can stand only once. Entries after “also recorded” stand apart in the source; their conditions may differ.

In the case of `Nc1c(C(=O)Nc2ccccc2F)c2ccccn2c1C(=O)c1ccc2c(c1)CCCC2` [Compound D4], the “effect on proteolysis activity of IDE for amyloid-β” value (shortened to “effect on proteolysis activity”) on IDE [1] is “did not have any effect”. In addition, on IDE [2], the “increase of IDE-mediated insulin (FITC-insulin-mAb) degradation” value (from here on “increase of IDE-mediated insulin”) was determined as 60%, the “effect of ATP on IDE activity for insulin degradation in presence of compound” value (shortened to “effect of ATP on IDE activity”) is given as “did not change significantly; also recorded: no effect”, the response was half-maximal at 13 µM (EC50) and the “increase of initial rate of proteolysis of FITC-insulin bound with antibody” value (shortened to “increase … of FITC-insulin bound with antibody”) was roughly 12 fold.
Take `COc1ccc(C2C(C(=O)Nc3ccccc3)=C(C)N=c3sc(=Cc4cn(C)nc4C)c(=O)n32)cc1` (stereo not drawn) [Compound D3]: on IDE [1], the “effect on proteolysis activity” value is recorded as “did not have any effect”. Moreover, at IDE [2], the “increase of IDE-mediated insulin” value is 72%, the “effect of ATP on IDE activity” value was “did not change significantly; also recorded: no effect”, the EC50 was roughly 20 µM and the “increase … of FITC-insulin bound with antibody” value is recorded as roughly 7.5 fold.
Regarding `Cc1nn(-c2ccccc2)c2nc(-c3cccc([N+](=O)[O-])c3)n3c4ccccc4nc3c2c1=O` [Compound D10], the “effect on proteolysis activity” value at IDE [1] is reported as “did not have any effect”. On IDE [2], the “increase of IDE-mediated insulin” value was 290% and ~275%; the “effect of ATP on IDE activity” value is “did not change significantly; also recorded: no effect”; the EC50 came out at 12 µM; the “increase … of FITC-insulin bound with antibody” value is listed as roughly 49 fold.
